Measured values reported in patent US20240279236A1, “COMPOUNDS AND METHODS OF TREATING TUBERCULOSIS” (Fimbrion Therapeutics, Inc., priority 2021, published 2024).

System: WT Mtb Erdman strain
Assay: Microplate Alamar Blue Assay (MABA), Mtb growth inhibition
Type: cell-based, Mycobacterium tuberculosis
Conditions: Mycobacterium tuberculosis, ERDMAN, 168 h, Middlebrook 7H9 media, 7 days at 37° C. in 5% CO2

Compound	IC50 [nM]
Cc1cc2c(NCCCc3ccccc3)nc(C3CCOC3)nc2s1 (centres unmarked) [Example 120, 6-methyl-N-(3-phenylpropyl)-2-(tetrahydrofuran-3-yl)thieno[2,3-d]pyrimidin-4-amine]	3000
Cc1cc2c(NCCCc3ccc(OC(F)(F)F)cc3)nc(-c3ccon3)nc2s1 [Example 121, 2-(isoxazol-3-yl)-6-methyl-N-(3-(4-(trifluoromethoxy)phenyl)propyl)thieno[2,3-d]pyrimidin-4-amine]	130
Cc1cc(-c2nc(NCCCc3ccc(OC(F)(F)F)cc3)c3cc(C)sc3n2)no1 [Example 122, 6-methyl-2-(5-methylisoxazol-3-yl)-N-(3-(4-(trifluoromethoxy)phenyl)propyl)thieno [2,3-d]pyrimidin-4-amine]	190
Cc1cc2c(NCCCc3ccc(OC(F)(F)F)cc3)nc(-c3ccccn3)nc2s1 [Example 123, 6-methyl-2-(pyridin-2-yl)-N-(3-(4-(trifluoromethoxy)phenyl)propyl)thieno [2,3-d]pyrimidin-4-amine]	1800
CSc1nc(NCCCc2ccc(OC(F)(F)F)cc2)c2cc(C)sc2n1 [Example 124, 6-methyl-2-(methylthio)-N-(3-(4-(trifluoromethoxy)phenyl)propyl) thieno[2,3-d]pyrimidin-4-amine]	62
Cc1cc2c(NCCCc3ccc(OC(F)(F)F)cc3)nc(-c3cnsc3)nc2s1 [Example 125, 2-(isothiazol-4-yl)-6-methyl-N-(3-(4-(trifluoromethoxy)phenyl)propyl)thieno [2,3-d]pyrimidin-4-amine]	610
Cc1cc2c(NCCCc3ccccc3)nc(-c3ccc(F)cc3)nc2s1 [Example 126, 2-(4-fluorophenyl)-6-methyl-N-(3-phenylpropyl)thieno [2,3-d]pyrimidin-4-amine]	2600
CCc1nc(NCCc2ccc(Cl)c(Cl)c2)c2cc(C)sc2n1 [Example 127, N-(3,4-dichlorophenethyl)-2-ethyl-6-methylthieno[2,3-d]pyrimidin-4-amine]	2800
Cc1cc2c(NCCCc3ccccc3)nc(-c3cscn3)nc2s1 [Example 128, 6-methyl-N-(3-phenylpropyl)-2-(thiazol-4-yl)thieno[2,3-d]pyrimidin-4-amine]	660
Cc1cc2c(NCCCc3ccccc3)nc(-c3nnc[nH]3)nc2s1 [Example 129, 6-methyl-N-(3-phenylpropyl)-2-(4H-1,2,4-triazol-3-yl)thieno[2,3-d]pyrimidin-4-amine]	5600
Cc1cc2c(NCCCc3ccccc3)nc(-c3cn[nH]c3)nc2s1 [Example 130, 6-methyl-N-(3-phenylpropyl)-2-(1H-pyrazol-4-yl)thieno[2,3-d]pyrimidin-4-amine]	2200
Cc1cc2c(NCCCc3ccccc3)nc(-n3ccnc3)nc2s1 [Example 131, 2-(1H-imidazol-1-yl)-6-methyl-N-(3-phenylpropyl)thieno [2,3-d]pyrimidin-4-amine]	3000
Cc1ccc(-c2nc(NCCCc3ccccc3)c3cc(C)sc3n2)o1 [Example 132, 6-methyl-2-(5-methylfuran-2-yl)-N-(3-phenylpropyl)thieno [2,3-d]pyrimidin-4-amine]	6600
Cc1cc2c(NCCCc3ccccc3)nc(-c3cnn(C)c3)nc2s1 [Example 133, 6-methyl-2-(1-methyl-1H-pyrazol-4-yl)-N-(3-phenylpropyl)thieno [2,3-d]pyrimidin-4-amine]	270
Cc1cc2c(NCCCc3ccccc3)nc(CC(C)C)nc2s1 [Example 134, 2-isobutyl-6-methyl-N-(3-phenylpropyl)thieno [2,3-d]pyrimidin-4-amine]	440
Cc1cc2c(NCCCc3ccccc3)nc(C(C)Cl)nc2s1 (centres unmarked) [Example 135, 2-(1-chloroethyl)-6-methyl-N-(3-phenylpropyl)thieno [2,3-d]pyrimidin-4-amine]	230
CCc1nc(NCCCc2ccc(OC(F)(F)F)c(C)c2)c2cc(C)sc2n1 [Example 136, 2-ethyl-6-methyl-N-(3-(3-methyl-4-(trifluoromethoxy)phenyl)propyl)thieno [2,3-d]pyrimidin-4-amine]	690
Cc1cc2c(NCCCc3ccccc3)nc(Cc3ccc(F)cc3)nc2s1 [Example 137, 2-(4-fluorobenzyl)-6-methyl-N-(3-phenylpropyl)thieno [2,3-d]pyrimidin-4-amine]	> 10000
Cc1cc2c(NCCCc3ccccc3)nc(CCc3ccccc3)nc2s1 [Example 138, 6-methyl-2-phenethyl-N-(3-phenylpropyl)thieno [2,3-d]pyrimidin-4-amine]	> 10000
Cc1cc(-c2nc(NCCCc3ccccc3)c3cc(C)sc3n2)c(C)o1 [Example 139, 2-(2,5-dimethylfuran-3-yl)-6-methyl-N-(3-phenylpropyl)thieno [2,3-d]pyrimidin-4-amine]	> 10000
Cc1cc(Cc2nc(NCCCc3ccccc3)c3cc(C)sc3n2)no1 [Example 140, 6-methyl-2-((5-methylisoxazol-3-yl)methyl)-N-(3-phenylpropyl)thieno [2,3-d]pyrimidin-4-amine]	> 10000

Compound	IC50 [nM]
Cc1nc(-c2nc(NCCCc3ccccc3)c3cc(C)sc3n2)co1 [Example 141, 6-methyl-2-(2-methyloxazol-4-yl)-N-(3-phenylpropyl)thieno [2,3-d]pyrimidin-4-amine]	1200
Cc1cc2c(NCCCc3ccccc3)nc(SCc3ccccc3)nc2s1 [Example 142, 2-(benzylthio)-6-methyl-N-(3-phenylpropyl)thieno [2,3-d]pyrimidin-4-amine]	> 10000
Cc1cc2c(NCCCc3ccccc3)nc(-c3ncon3)nc2s1 [Example 143, 6-methyl-2-(1,2,4-oxadiazol-3-yl)-N-(3-phenylpropyl)thieno [2,3-d]pyrimidin-4-amine]	220
Cc1nc2c(N[C@@H]3C[C@H]3c3ccc(F)c(F)c3)nc(-c3ccc(C(F)(F)F)cn3)nc2s1 [Example 144, N-((1R,2S)-2-(3,4-difluorophenyl)cyclopropyl)-2-methyl-5-(5-(trifluoromethyl)pyridin-2-yl)thiazolo[5,4-d]pyrimidin-7-amine]	> 10000
Cc1nc2c(NCCCc3ccccc3)nc(-c3ccc(C(F)(F)F)cn3)nc2s1 [Example 145, 2-methyl-N-(3-phenylpropyl)-5-(5-(trifluoromethyl)pyridin-2-yl)thiazolo[5,4-d]pyrimidin-7-amine]	7300
Cc1nc2c(N[C@@H]3C[C@H]3c3ccc(F)c(F)c3)nc(-c3ccc(F)cn3)nc2s1 [Example 146, N-((1R,2S)-2-(3,4-difluorophenyl)cyclopropyl)-5-(5-fluoropyridin-2-yl)-2-methylthiazolo[5,4-d]pyrimidin-7-amine]	5100
Cc1nc2c(NCCCc3ccccc3)nc(-c3ccc(F)cn3)nc2s1 [Example 147, 5-(5-fluoropyridin-2-yl)-2-methyl-N-(3-phenylpropyl)thiazolo [5,4-d]pyrimidin-7-amine]	2100
Cc1nc2c(N[C@@H]3C[C@H]3c3ccc(F)c(F)c3)nc(-c3ccncn3)nc2s1 [Example 148, N-((1R,2S)-2-(3,4-difluorophenyl)cyclopropyl)-2-methyl-5-(pyrimidin-4-yl)thiazolo[5,4-d]pyrimidin-7-amine]	> 10000
Cc1nc2c(NCCCc3ccccc3)nc(-c3ccncn3)nc2s1 [Example 149, 2-methyl-N-(3-phenylpropyl)-5-(pyrimidin-4-yl)thiazolo[5,4-d]pyrimidin-7-amine]	2000
CCOc1nc(N[C@@H]2C[C@H]2c2ccc(F)c(F)c2)c2cc(C)sc2n1 [Example 150, N-((1R,2S)-2-(3,4-difluorophenyl)cyclopropyl)-2-ethoxy-6-methylthieno[2,3-d]pyrimidin-4-amine]	380
COc1nc(N[C@@H]2C[C@H]2c2ccc(F)c(F)c2)c2cc(C)sc2n1 [Example 151, N-((1R,2S)-2-(3,4-difluorophenyl)cyclopropyl)-2-methoxy-6-methylthieno[2,3-d]pyrimidin-4-amine]	260
Cc1cc2c(NC/C=C/c3ccccc3)nc(C(F)(F)F)nc2s1 [Example 152, N-cinnamyl-6-methyl-2-(trifluoromethyl) thieno[2,3-d] pyrimidin-4-amine]	440
Cc1cc2c(N[C@@H]3C[C@H]3c3ccc(F)c(F)c3)nc(Oc3ccccc3)nc2s1 [Example 153, N-((1R,2S)-2-(3,4-difluorophenyl)cyclopropyl)-6-methyl-2-phenoxythieno[2,3-d]pyrimidin-4-amine]	> 10000
Cc1cc2c(NCCCc3ccccc3)nc(Sc3ccccc3)nc2s1 [Example 154, 6-methyl-N-(3-phenylpropyl)-2-(phenylthio)thieno[2,3-d]pyrimidin-4-amine]	> 10000
Cc1cc2c(N[C@@H]3C[C@H]3c3ccc(F)c(F)c3)nc(Sc3ccccc3)nc2s1 [Example 155, N-((1R,2S)-2-(3,4-difluorophenyl)cyclopropyl)-6-methyl-2-(phenylthio)thieno[2,3-d]pyrimidin-4-amine]	> 10000
Cc1cc2c(NCCCc3ccccc3)nc(N=[N+]=[N-])nc2s1 [Example 156, 2-azido-6-methyl-N-(3-phenylpropyl)thieno [2,3-d]pyrimidin-4-amine]	160
Cc1cc2c(NCCCc3ccncc3)nc(C(F)(F)F)nc2s1 [Example 157, 6-methyl-N-(3-(pyridin-4-yl)propyl)-2-(trifluoromethyl) thieno[2,3-d] pyrimidin-4-amine]	> 10000
Cc1cc2c(NCCCc3cccnc3)nc(C(F)(F)F)nc2s1 [Example 158, 6-methyl-N-(3-(pyridin-3-yl)propyl)-2-(trifluoromethyl) thieno[2,3-d] pyrimidin-4-amine]	> 6900
Cc1cc2c(NCCCc3ccccn3)nc(C(F)(F)F)nc2s1 [Example 159, 6-methyl-N-(3-(pyridin-2-yl)propyl)-2-(trifluoromethyl)thieno [2,3-d]pyrimidin-4-amine]	> 10000
Cc1cc2c(NCCC(c3ccccc3)c3ccccc3)nc(C(F)(F)F)nc2s1 [Example 160, N-(3,3-diphenylpropyl)-6-methyl-2-(trifluoromethyl) thieno[2,3-d] pyrimidin-4-amine]	1100
